According to patent US20230202989A1, “COMPOUNDS” (JANSSEN PHARMACEUTICA NV, priority 2020, published 2023):
Where two headings read alike, the source gives them in different places.

What was measured:
[1] = tested on: IL-1β; assay: PBMC assay: inhibition of IL-1β release after LPS stimulation (MSD); type: cell-based; conditions: human PBMCs, 100 ng/ml LPS for 6 hrs, MSD, 96 well plates, read-out: IL1β IC50
Description: Peripheral venous blood s collected from health individuals and human peripheral blood mononuclear cells (PBMCs) ere isolated from blood by Ficoll Histopaque (Sigma-Aldrich, A0561) density gradient centrifugation. After isolation, PBMCs were stored in liquid nitrogen for later use. Upon thawing, PBMC cell viability was determined in growth medium (RPMI media supplemented with 10% fetal bovine serum, 1% Pen-Strep and 1% L-glutamine). […] PBMCs were added at a density of 7.5×10^4 cells per well and incubated for 30 min in a 5% CO2 incubator at 37° C. LPS stimulation was performed by addition of 100 ng/ml LPS (final concentration, Invivogen, tlrl-smlps) for 6 hrs followed by collection of cellular supernatant and the analysis of IL-1β (μM) and TNF cytokines levels (μM) via MSD technology according to manufacturers' guidelines (MSD, K151A0H).
(§1) The IC50 values (for IL-1β) and EC50 values (TNF) were obtained on compounds of the invention/examples, and are depicted in the following table: […]

[2] = tested on: TNF; assay: PBMC assay: TNF cytokine levels after LPS stimulation (MSD); type: cell-based; conditions: Homo sapiens, PBMC, 6 h, human PBMCs, 100 ng/ml LPS for 6 hrs
Description: Peripheral venous blood s collected from health individuals and human peripheral blood mononuclear cells (PBMCs) ere isolated from blood by Ficoll Histopaque (Sigma-Aldrich, A0561) density gradient centrifugation. After isolation, PBMCs were stored in liquid nitrogen for later use. Upon thawing, PBMC cell viability was determined in growth medium (RPMI media supplemented with 10% fetal bovine serum, 1% Pen-Strep and 1% L-glutamine). Compounds were spotted in a 1:3 serial dilution in DMSO and diluted to the final concentration in 30 μl medium in 96 well plates (Falcon, 353072). PBMCs were added at a density of 7.5×10^4 cells per well and incubated for 30 min in a 5% CO2 incubator at 37° C. LPS stimulation was performed by addition of 100 ng/ml LPS (final concentration, Invivogen, tlrl-smlps) for 6 hrs followed by collection of cellular supernatant and the analysis of IL-1β (μM) and TNF cytokines levels (μM) via MSD technology according to manufacturers' guidelines (MSD, K151A0H).
as §1

| Compound | IC50 ([1]; Homo sapiens, PBMC, 6 h) [nM] | EC50 [2] [nM] | IC50 [1] [nM] |
| --- | --- | --- | --- |
| CC(C)c1nn(CC(=O)N[C@H]2C[C@@](C)(O)C2)c(=O)c2ccc(C(F)(F)F)cc12 [Final Cpd 25] | 58 | 15400 | – |
| CCc1nn(CC(=O)N[C@H]2CC[C@H](O)CC2)c(=O)c2ccc(C)cc12 [Final Cpd 26, trans-2-(6-methyl-4-ethyl-1-oxo-phthalazin-2-yl)-N-(4-hydroxycyclohexyl)acetamide] | > 10000 | > 10000 | – |
| CCc1nn(CC(=O)N[C@H]2CC[C@H](O)CC2)c(=O)c2ccc(C3CC3)cc12 [Final Cpd 27] | 1660 | > 10000 | – |
| CCc1ccc2c(=O)n(CC(=O)N[C@H]3CC[C@H](O)CC3)nc(CC)c2c1 [Final Cpd 29] | 3590 | > 10000 | – |
| CC(C)c1ccc2c(=O)n(CC(=O)N[C@H]3C[C@@](C)(O)C3)nc(C(C)C)c2c1 [Final Cpd 34] | < 120 | > 10000 | – |
| CC(C)c1nn(CC(=O)Nc2ccncn2)c(=O)c2ccc(Br)cc12 [Final Cpd 38] | < 25 | > 10000 | – |
| C[C@]1(O)C[C@@H](NC(=O)Cn2nc(C3CC3)c3cc(C(F)(F)F)ccc3c2=O)C1 [Final Cpd X4] | 60 | > 20000 | – |
| CC(C)c1nn(CC(=O)Nc2ccc3c(c2)[nH]c(=O)n3C)c(=O)c2ccc(C(F)(F)F)cc12 [Final Cpd X5] | 64 | > 20000 | – |
| CCc1nn(CC(=O)Nc2ccc3nncn3c2)c(=O)c2ccc(C(F)(F)F)cc12 [Final Cpd X8] | 75 | 12200 | – |
| CCN1CCC[C@@H](NC(=O)Cn2nc(C(C)C)c3cc(C(F)(F)F)ccc3c2=O)C1 [Final Cpd X9] | 90 | > 20000 | – |
| CC(C)c1nn(CC(=O)N[C@@H]2CCCN(C3CC3)C2)c(=O)c2ccc(C(F)(F)F)cc12 [Final Cpd X10] | 92 | > 20000 | – |
| CC(C)c1nn(CC(=O)Nc2cn3cnnc3cn2)c(=O)c2ccc(C(F)(F)F)cc12 [Final Cpd X14, N-([1,2,4]triazolo[4,3-a]pyrazin-6-yl)-2-(4-isopropyl-1-oxo-6-(trifluoromethyl)phthalazin-2(1H)-yl)acetamide] | 116 | > 20000 | – |
| CC(C)c1nn(CC(=O)Nc2ccc3nncn3c2)c(=O)c2ccc(C(F)(F)F)c(F)c12 [Final Cpd X26] | 185 | > 20000 | – |
| Cc1cc(NC(=O)Cn2nc(C(C)C)c3cc(C(F)(F)F)ccc3c2=O)cn2cnnc12 [Final Cpd X28, 2-(4-isopropyl-1-oxo-6-(trifluoromethyl)phthalazin-2(1H)-yl)-N-(8-methyl-[1,2,4]triazolo[4,3-a]pyridin-6-yl)acetamide] | 193 | > 20000 | – |
| CO[C@]1(C)C[C@H](NC(=O)Cn2nc(C(C)C)c3cc(C(F)(F)F)ccc3c2=O)C1 [Final Cpd X29, 2-(4-isopropyl-1-oxo-6-(trifluoromethyl)phthalazin-2(1H)-yl)-N-((1s,3s)-3-methoxy-3-methylcyclobutyl)acetamide] | 216 | > 20000 | – |
| CC(C)c1nn(CC(=O)N[C@H]2C[C@](O)(C(F)(F)F)C2)c(=O)c2ccc(C(F)(F)F)cc12 [Final Cpd X35] | – | > 20000 | 303 |
| C[C@]1(O)C[C@@H](NC(=O)Cn2nc(C(F)F)c3cc(C(F)(F)F)ccc3c2=O)C1 [Final Cpd X36] | 304 | > 20000 | – |
| CC(C)c1nn(CC(=O)Nc2ccc3ncnn3c2)c(=O)c2ccc(C(F)(F)F)cc12 [Final Cpd X38] | 331 | > 20000 | – |
| CC(C)c1nn(CC(=O)Nc2ccc(=O)n(CCN(C)C)n2)c(=O)c2ccc(C(F)(F)F)cc12 [Final Cpd X40] | 349 | > 20000 | – |
| CC(C)c1nn(CC(=O)N[C@H]2CC[C@@H](O)CC2)c(=O)c2ccc(C(F)(F)F)cc12 [Final Cpd X42] | 353 | 15000 | – |

More lines, now with the values ahead:

| IC50 ([1]; Homo sapiens, PBMC, 6 h) [nM] | EC50 [2] [nM] | IC50 [1] [nM] | Compound |
| --- | --- | --- | --- |
| 890 | > 10000 | – | CCc1nn(CC(=O)N[C@H]2CC[C@H](O)CC2)c(=O)c2ccc(Br)cc12 [Final Cpd 24, trans-2-(6-bromo-4-ethyl-1-oxo-phthalazin-2-yl)-N-(4-hydroxycyclohexyl)acetamide] |
| 970 | > 10000 | – | CCc1nn(CC(=O)N[C@H]2CC[C@H](O)CC2)c(=O)c2ccc(C(C)C)cc12 [Final Cpd 28] |
| 1290 | > 10000 | – | CCc1nn(CC(=O)N[C@H]2CC[C@H](O)CC2)c(=O)c2ccc(C(F)(F)F)cc12 [Final Cpd 30] |
| 103 | 13600 | – | CC(C)c1nn(CC(=O)Nc2ccc3nncn3c2)c(=O)c2ccc(C3CC3)cc12 [Final Cpd 31] |
| 213 | > 20000 | – | CC(C)c1nn(CC(=O)N[C@H]2C[C@@](C)(O)C2)c(=O)c2ccc(C3CC3)cc12 [Final Cpd 32] |
| < 120 | > 10000 | – | CC(C)c1ccc2c(=O)n(CC(=O)Nc3ccc4nncn4c3)nc(C(C)C)c2c1 [Final Cpd 33] |
| 170 | > 10000 | – | CC(C)c1ccc2c(=O)n(CC(=O)Nc3ccncn3)nc(C(C)C)c2c1 [Final Cpd 35] |
| < 25 | > 10000 | – | CC(C)c1nn(CC(=O)Nc2ccc3nncn3c2)c(=O)c2ccc(Br)cc12 [Final Cpd 36] |
| < 25 | > 10000 | – | CC(C)c1nn(CC(=O)N[C@H]2C[C@@](C)(O)C2)c(=O)c2ccc(Br)cc12 [Final Cpd 37] |
| 51 | 4010 | – | CC(C)c1nn(CC(=O)Nc2ccc3nncn3n2)c(=O)c2ccc(C(F)(F)F)c(F)c12 [Final Cpd X3] |
| 66 | > 20000 | – | CCN1CC[C@@H](O)[C@@H](NC(=O)Cn2nc(C(C)C)c3cc(C(F)(F)F)ccc3c2=O)C1 [Final Cpd X6, N-((3S,4R)-1-ethyl-4-hydroxypiperidin-3-yl)-2-(4-isopropyl-1-oxo-6-(trifluoromethyl)phthalazin-2(1H)-yl)acetamide] |
| 105 | > 20000 | – | CC(C)c1nn(CC(=O)Nc2nc(Cl)c3nc[nH]c3n2)c(=O)c2ccc(C(F)(F)F)cc12 [Final Cpd X11, N-(6-chloro-9H-purin-2-yl)-2-(4-isopropyl-1-oxo-6-(trifluoromethyl)phthalazin-2(1H)-yl)acetamide] |
| 122 | > 20000 | – | CC(C)c1nn(CC(=O)N[C@H]2CN(C3CC3)CC[C@H]2O)c(=O)c2ccc(C(F)(F)F)cc12 [Final Cpd X15, N-((3S,4R)-1-cyclopropyl-4-hydroxypiperidin-3-yl)-2-(4-isopropyl-1-oxo-6-(trifluoromethyl)phthalazin-2(1H)-yl)acetamide] |
| 147 | > 20000 | – | CC(C)c1nn(CC(=O)N[C@H]2C[C@@](C)(O)C2)c(=O)c2ccc(C(F)(F)F)c(F)c12 [Final Cpd X17] |
| 156 | > 20000 | – | CC(C)c1nn(CC(=O)Nc2ccc3nnnn3n2)c(=O)c2ccc(C(F)(F)F)cc12 [Final Cpd X18] |
| 175 | > 20000 | – | CCC(C)c1nn(CC(=O)Nc2ccc3nncn3c2)c(=O)c2ccc(C(F)(F)F)cc12 (centres unmarked) [Final Cpd X24] |
| 178 | > 20000 | – | CC(C)c1nn(CC(=O)Nc2ccc3ncn(C)c3c2)c(=O)c2ccc(C(F)(F)F)cc12 [Final Cpd X25] |
| 189 | > 20000 | – | Cc1cn2cc(NC(=O)Cn3nc(C(C)C)c4cc(C(F)(F)F)ccc4c3=O)ccc2n1 [Final Cpd X27] |
| 219 | > 20000 | – | CCc1nn(CC(=O)Nc2ccnnc2)c(=O)c2ccc(C(F)(F)F)cc12 [Final Cpd X30] |
| 233 | > 20000 | – | CC(C)c1nn(CC(=O)Nc2ccc3nccn3c2)c(=O)c2ccc(C(F)(F)F)cc12 [Final Cpd X31] |
| 235 | > 20000 | – | O=C(Cn1nc(C(F)F)c2cc(C(F)(F)F)ccc2c1=O)Nc1ccc2nncn2c1 [Final Cpd X32] |
| 252 | > 20000 | – | CC(C)c1nn(CC(=O)Nc2ccc(=O)n(C)n2)c(=O)c2ccc(C(F)(F)F)cc12 [Final Cpd X33] |
| 255 | > 20000 | – | O=C(Cn1nc(C2CC2)c2cc(C(F)(F)F)ccc2c1=O)Nc1ccc2nncn2n1 [Final Cpd X34] |
| 316 | > 20000 | – | CCN1C[C@H](F)C[C@@H](NC(=O)Cn2nc(C(C)C)c3cc(C(F)(F)F)ccc3c2=O)C1 [Final Cpd X37] |
| 347 | 12600 | – | CC(C)c1nn(CC(=O)Nc2cc(C(F)F)[nH]n2)c(=O)c2ccc(C(F)(F)F)cc12 [Final Cpd X39] |
| 374 | > 20000 | – | CC(C)c1nn(CC(=O)N[C@H]2CC[C@H](O)CC2)c(=O)c2ccc(C(F)(F)F)cc12 [Final Cpd X44] |
